Assays:
[1] = test system: MV4-11 (expressing FLT3/ITD mutant gene); test: Cell proliferation, Cell Titer-Glo, MV4-11; type: cell-based; conditions: Homo sapiens, MV4-11; incubated for 72 hours; read-out: MV4-11 IC50
Method: (§1) The above cell lines were constructed by our laboratory.
(§2) The number of viable cells was determined by quantification of ATP in living cells using the Cell Titer-Glo® (Promega, USA) chemiluminescence cell viability assay kit.

[2] = test system: TEL-BaF3-FLT3/ITD (stably expressing FLT3/ITD mutant activated kinase); test: Cell proliferation, Cell Titer-Glo, TEL-BaF3-FLT3/ITD; type: cell-based, mouse; conditions: Mus musculus, 72 h, incubated for 72 hours; read-out: TEL-BaF3-FLT3/ITD IC50
Method: as §1, §2

[3] = test system: U937 (expressing wild-type FLT3 gene); test: Cell proliferation, Cell Titer-Glo, U937; type: cell-based, human; conditions: Homo sapiens, U-937, 72 h, incubated for 72 hours; read-out: U937 IC50
Method: as §1, §2

[4] = test system: OCI-AML-3 (expressing FLT3 A680V mutant gene); test: Cell proliferation, Cell Titer-Glo, OCI-AML3; type: cell-based; conditions: Homo sapiens, incubated for 72 hours
Method: as §1, §2

An IC50 [1] of 6.5 µM, an IC50 [2] of 1.4 µM and an IC50 [3] greater than 10 µM were found for `Nc1ncnc2c1c(-c1ccc(Oc3ccccc3)cc1)nn2[C@@H]1CCCN(C(=O)C2CC2)C1` [Compound 1, (R)-(3-(4-amino-(4-phenoxyphenyl)-1H-pyrazolo[3,4-d]pyrimidin-1-yl)piperidin-1-yl)(cyclopropyl)methanone] in this work. For the same compound, the IC50 [4] was greater than 10 µM.

An IC50 [1] of 0.35 µM, an IC50 [2] of 0.07 µM and an IC50 [3] greater than 10 µM were found for `CC(=O)N1CCC[C@@H](n2nc(-c3ccc(Oc4ccccc4)cc3)c3c(N)ncnc32)C1` [Compound 34] in this work. It also gave an IC50 [4] of 3.56 µM.

An IC50 [1] of 0.28 µM, an IC50 [2] of 0.07 µM and an IC50 [3] of 1.06 µM were found for `CN1CCN(Cc2ccc(C(=O)N3CCC[C@@H](n4nc(-c5ccc(Oc6ccccc6)cc5)c5c(N)ncnc54)C3)cc2)CC1` [Compound 35, (R)-(3-(4-amino-(4-phenoxyphenyl)-1H-pyrazolo[3,4-d]pyrimidin-1-yl)piperidin-1-yl)(4-((4-methylpiperazin-1-yl)methyl)phenyl)methanone] in this work. The IC50 [4] was 0.62 µM.

An IC50 [1] of 0.67 µM, an IC50 [2] of 0.15 µM and an IC50 [3] of 8.96 µM were found for `Nc1ncnc2c1c(-c1ccc(Oc3ccccc3)cc1)nn2[C@@H]1CCCN(C(=O)CCCl)C1` [Compound 36] in this work. The IC50 [4] was greater than 10 µM.

An IC50 [1] of 0.23 µM, an IC50 [2] of 0.15 µM and an IC50 [3] greater than 10 µM were found for `CC(Br)C(=O)N1CCC[C@@H](n2nc(-c3ccc(Oc4ccccc4)cc3)c3c(N)ncnc32)C1` (stereo partly drawn) [Compound 37] in this work. For the same compound, the IC50 [4] was 1.09 µM.

An IC50 [1] of 0.97 µM, an IC50 [2] of 0.12 µM and an IC50 [3] of 7.93 µM were found for `CC(Cl)C(=O)N1CCC[C@@H](n2nc(-c3ccc(Oc4ccccc4)cc3)c3c(N)ncnc32)C1` (stereo partly drawn) [Compound 38] in this work. It also gave an IC50 [4] of 6.51 µM.

An IC50 [1] of 0.23 µM, an IC50 [2] of 0.093 µM and an IC50 [3] of 5.87 µM were found for `CN1CCN(CC(=O)N2CCC[C@@H](n3nc(-c4ccc(Oc5ccccc5)cc4)c4c(N)ncnc43)C2)CC1` [Compound 39] in this work. It also gave an IC50 [4] of 4.91 µM.

An IC50 [1] of 0.76 µM, an IC50 [2] of 0.16 µM and an IC50 [3] of 4.45 µM were found for `CCCS(=O)(=O)N1CCC[C@@H](n2nc(-c3ccc(Oc4ccccc4)cc3)c3c(N)ncnc32)C1` [Compound 40, (R)-3-(4-phenoxyphenyl)-1-(1-(propylsulfonyl)piperidin-3-yl)-1H-pyrazolo[3,4-d]pyrimidin-4-amine] in this work. It also gave an IC50 [4] of 6.61 µM.

An IC50 [1] of 0.57 µM, an IC50 [2] of 0.14 µM and an IC50 [3] of 5.84 µM were found for `CCS(=O)(=O)N1CCC[C@@H](n2nc(-c3ccc(Oc4ccccc4)cc3)c3c(N)ncnc32)C1` [Compound 41, (R)-3-(4-phenoxyphenyl)-1-(1-(ethylsulfonyl)piperidin-3-yl)-1H-pyrazolo[3,4-d]pyrimidin-4-amine] in this work. The IC50 [4] was 4.85 µM.

An IC50 [1] of 1.9 µM, an IC50 [2] of 0.39 µM and an IC50 [3] greater than 10 µM were found for `Nc1ncnc2c1c(-c1ccc(Oc3ccccc3)cc1)nn2[C@@H]1CCCN(C(=O)C(Cl)(Cl)Cl)C1` [Compound 42] in this work. The IC50 [4] was greater than 10 µM.

An IC50 [1] of 0.75 µM, an IC50 [2] of 0.39 µM and an IC50 [3] of 5.68 µM were found for `NCCC(=O)N1CCC[C@@H](n2nc(-c3ccc(Oc4ccccc4)cc3)c3c(N)ncnc32)C1` [Compound 46] in this work. It also gave an IC50 [4] of 8.61 µM.

An IC50 [1] of 2.4 µM, an IC50 [2] of 0.46 µM and an IC50 [3] greater than 10 µM were found for `CC(C)(C)CC(=O)N1CCC[C@@H](n2nc(-c3ccc(Oc4ccccc4)cc3)c3c(N)ncnc32)C1` [Compound 49] in this work. The IC50 [4] was greater than 10 µM.

An IC50 [1] of 2.4 µM, an IC50 [2] of 0.26 µM and an IC50 [3] greater than 10 µM were found for `CCC(C)(C)C(=O)N1CCC[C@@H](n2nc(-c3ccc(Oc4ccccc4)cc3)c3c(N)ncnc32)C1` [Compound 50] in this work. For the same compound, the IC50 [4] was greater than 10 µM.

An IC50 [1] of 0.61 µM, an IC50 [2] of 0.15 µM and an IC50 [3] greater than 10 µM were found for `Nc1ncnc2c1c(-c1ccc(Oc3ccccc3)cc1)nn2[C@@H]1CCCN(C(=O)CC(F)(F)F)C1` [Compound 51] in this work. It also gave an IC50 [4] greater than 10 µM.

An IC50 [1] of 0.41 µM, an IC50 [2] of 0.082 µM and an IC50 [3] greater than 10 µM were found for `Nc1ncnc2c1c(-c1ccc(Oc3ccccc3)cc1)nn2[C@@H]1CCCN(C(=O)CC2CC2)C1` [Compound 52] in this work. The IC50 [4] was 7.89 µM.

From patent publication US10266535B2, “Inhibitor of FLT3 kinase and use thereof” (HEFEI INSTITUTES OF PHYSICAL SCIENCE, CHINESE ACADEMY OF …, priority 2015, dated 2019)
